According to US10143748B2, “B-cell reduction using CD37-specific and CD20-specific binding molecules” (Emergent Product Development Seattle, LLC, priority 2005, dated 2018):
“Also recorded” adds a separate entry of the source.

How the values were obtained:
Ramos B cells = test: CDC assay, Ramos B cells with human serum complement, propidium iodide; type: cell-based; conditions: Ramos B cells, human serum
Protocol: (§1) The cells were incubated 60 minutes at 37° C. […] Samples were incubated 15 minutes at room temperature in the dark prior to analysis by flow cytometry using a FACsCalibur and CellQuest software (Becton Dickinson).
as §1

[1] = test system: CD19 and CD40 positive lymphocytes (B cells); test: depletion of normal B cells from human PBMC cultures; type: cell-based; conditions: 1 μg/ml, 24 to 72 hours, FIG. 20C
Protocol: Human PBMCs were isolated from whole blood by LSM density centrifugation. […] A portion of the incubation reaction was harvested at 48 hours and again at 72 hours after initiation of the experiment. PBMCs were washed and incubated with FITC anti-CD19, FITC anti-CD40, or FITC anti-CD3 for 45 minutes on ice.

Daudi tumors = test: Daudi tumor xenograft in nude mice; type: in vivo, mouse
Protocol: Ramos and Daudi tumor cells were separately grown and (5×10^6) cells were injected subcutaneously in the right flank of mice to initiate the formation of mouse tumor xenografts. After tumor development, mice were sorted into groups based on tumor size/volume (day 0). […] Tumor volume was blindly measured three times weekly with calipers until completion of the experiment (sacrifice or regression).

B-CLL cells = test: MTT cell viability of CLL cells with fludarabine and TRU-016; type: cell-based, human; conditions: MTT at 48 hr, TRU-016 with fludarabine, FIG. 27
Protocol: Cells were treated with TRU-016 at dosages ranging from 0.1-100 μg/mL and with fludarabine at dosages ranging from 0-20 μM (see FIG. 27). TRU-016 was provided by Trubion Pharmaceuticals (Seattle, Wash.). Fludarabine (F-araA) was purchased from SIGMA (St. Louis, Mo.). RPMI 1640 media was purchased from Invitrogen (Carlsbad, Calif.). Fluorescein isothiocyanate (FITC)-labeled annexin V, and propidium iodide (P1) were purchased from BD Pharmingen, San Diego, Calif. 13-(4,5-dimethylthiazol-2-yl)-2,5-diphenyltetrazolium bromide (MTT) was purchased from Sigma (St. Louis, Mo.). B-CLL cells were isolated immediately following donation using ficoll density gradient centrifugation (Ficoll-Paque Plus, Amersham Biosciences, Piscataway, N.J.). […]
Cells were treated in vitro as described herein. […] Cell viability was assessed using MTT assays at 48 hr, and apoptosis was measured using Annexin V/PI at 24 hr.
MTT assays were performed to measure cell viability as described herein. […] Samples were measured with a plate reader at 0.D.540. Cell viability was expressed as the percentage of viability compared with media control.
A synergistic effect was determined by use of the isobologram method. […]

[2] = established Daudi tumors, 100 μg

Substance: G28-1 scFv VH11S(SSC—P)H WCH2 WCH3 [TRU-016]
- CDC activity with human complement, single reagent (Ramos B cells): fails to mediate CDC unless aggregates are present
- depletion of B lymphocytes compared to T lymphocytes [1]: capable of specific depletion of CD37 positive B lymphocytes
- survival time (Daudi tumors; Daudi tumor xenograft, FIGS. 25 and 26): more effective than rituximab in maintaining survival; also recorded: significantly enhanced survival time compared to the control group; also recorded: statistically significant increase in median survival time
- Median Survival Time (Daudi tumors; [2]): 24 days
- Percentage of Tumor Free Mice at Day 90 (Daudi tumors; [2]): 25%
- relative cell viability in cells treated with fludarabine (B-CLL cells): effectively reduced relative cell viability
